Experimental data published in patent US20050256161A1, “Melanin concentrating hormone receptor antagonists” (priority 2003, published 2005).

How the values were obtained:
[1] = molecular target: T1, rat MCH1 receptor (Rattus norvegicus, UniProt P97639); test: rMCH FLIPR calcium mobilization functional assay; assay type: cell-based; details: CHOK1-Gqi cells
T1 construct: expressed in transfected cells
Experimental: Pharmacological analyses were conducted using either a HT-PS100 device (Axiom Biotechnologies, San Diego, Calif.), which provides high-resolution dose-response fluorometric measurements of [Ca^++]i mobilization, or using a FLIPR® device (Molecular Devices, Sunnyvale, Calif.).
Materials: Pharmacological analysis was conducted using a FLIPR® device (Molecular Devices, Sunnyvale, Calif.). CHOK1-Gqi cells were stably transfected with the rat MCH1 receptor and maintained under G418 antibiotic pressure. FLIPR® assay buffer consisted of phenol red-free DMEM+2.5 mM probenecid. MCH peptide (Amgen, Inc.) was reconstituted in assay buffer and served as the positive agonist control for all experiments. Test compounds were prepared as 10 mM stocks in 100% DMSO and diluted to a top end working concentration of 10 μM in 96 well black, flat bottom, collagen-I coated plates (Becton Dickinson, Bedford, Mass.).
Methods: CHOK1-Gqi cells stably expressing MCH1R were maintained in Dulbeco's modified Eagle's medium (GIBCO/Life Technologies, Rockville, Md.) supplemented with 2 mM glutamine and 10% dialyzed fetal bovine serum (HyClone, Logan, Utah) at 37° C., 5% CO2. Cells were harvested by 10′ treatment with Versene (GIBCO/Life Technologies) followed by trituration, washing twice with cold (4° C.) hybridoma medium (Serum/Protein free, with L-glutamine, sodium bicarbonate, MOPS buffer) (Sigma-Aldrich Corp, St. Louis, Mo.) and replated onto 96 well black, flat bottom, collagen-I coated plates to a density of 10,000 cells/well. The cells were then loaded with the fluorescent calcium indicator Fura-2 (Molecular Probes, Eugene, Oreg.) at 1.6 μM for 60′ at room temperature. The loaded cells were then washed twice with 90 μl/well of wash buffer (1×HBSS, 20 mM HEPES, 2.5 mM probenecid).
Receptor-stimulated intracellular calcium responses were detected using FLIPR® by monitoring increases in the Fura-2 fluorescence response.
Test compounds were screened for MCH1R activity in the FLIPR® for both agonist and antagonist action. Agonist mode challenges were conducted at a maximum gradient concentration of 1 μM. Antagonist activity was tested by 10 min pre-incubation of cells at a compound concentration of defined to be 300× the EC50 of MCH (typically 1 μM), with subsequent introduction of MCH at a concentration 5-fold of EC50 as determined in preliminary experiments.
Schild experiments were conducted on the FLIPR® for selected compounds by co-administering antagonist compounds together with MCH peptide. Several fixed concentrations of antagonist compounds were prepared in 10-fold increments, and presented to the cells in a gradient of increasing MCH concentration. Values for compound pA2 were calculated by linear regression of MCH EC50s as a function of antagonist concentration.

[2] = molecular target: T2, rat MCH 1 receptor (rMCH1R) (Rattus norvegicus, UniProt P97639); test: Ligand binding assay (125I native-MCH), rMCH; details: rMCH1R expressed in HEK 293, membranes, 0.2 nM 125I native-MCH
T2 construct: expressed in transfected cells; host or cells: HEK 293 (membrane preparation)
Experimental: (§1) Human embryonic kidney cells (293 total) expressing either human, rat, or mouse MCH receptor were harvested from 150 mm culture dishes using PBS. Spinning at 1500 rpm for 2 minutes initially pelleted cells. The resulting pellet was then homogenized in 15 mL ice cold sucrose buffer (25 mM HEPES, 0.3 M sucrose, pH 7.4) with a motorized, glass fitted, Teflon® homogenizer. The homogenate was centrifuged at 48,000×g at 4° C. for 10 minutes, resuspended in 15 mL assay buffer (25 mM HEPES, 10 mM MgCl2, 0.2% BSA, 0.1 mg/mL STI, 0.1 mg/mL Pefabloc®, 1 μM Phosphoramidon, pH 7.4) with a Tissue-Tearor® (Biospec Products) and centrifuged again at 48,000×g for 10 minutes. The pellet was homogenized for a third time in 15 mL assay buffer using the Tissue-Tearor® and again centrifuged at 48,000×g for 10 minutes. The resulting pellet was resuspended in assay buffer at a wet weight concentration of 10-20 mg/mL.
(§2) Binding assays were determined as described below using mouse, rat or human MCH 1 receptors (mMCH1R, rMCH1R, and hMCH1R, respectively) expressed in HEK 293; IC50 values were calculated.
(§3) Binding assays were performed in 96-well U-bottom plates. Membranes (100 μg tissue) were incubated at 30° C. for 90 minutes in assay buffer with various peptides in the presence of 0.2 nM 125I native-MCH (Perkin-Elmer Life Sciences, Boston, Mass.) in 100 μL total volume. Non-specific binding was assessed in the presence of 1 μM cold native-MCH. The reaction was terminated by rapid filtration through Unfilter-96 GF/C glass fiber filter plates (FilterMate® 196 Harvester, Packard Instrument Co., Meriden, Conn.) pre-soaked in PBS/0.5% BSA, followed by three washes with 300 μL ice-cold water. Bound radioactivity was determined using a TopCount® microplate scintillation and luminescence counter (Packard Instrument Co., Meriden, Conn.). Nonlinear regression analyses of drug concentration curves were performed using GraphPad Prism® (GraphPad Software, Inc., San Diego, Calif.).

[3] = molecular target: T3, human MCH receptor (Homo sapiens, UniProt Q99705); test: hMCH FLIPR calcium mobilization functional assay; assay type: cell-based
T3 construct: expressed in transfected cells

[4] = molecular target: T4, human MCH 1 receptor (hMCH1R) (Homo sapiens, UniProt Q99705); test: Ligand binding assay (125I native-MCH), hMCH; details: hMCH1R expressed in HEK 293, membranes, 0.2 nM 125I native-MCH
T4 construct: expressed in transfected cells; host or cells: HEK 293 (membrane preparation)
Experimental: as §1, §2, §3

T3 sequence (Q99705 whole entry): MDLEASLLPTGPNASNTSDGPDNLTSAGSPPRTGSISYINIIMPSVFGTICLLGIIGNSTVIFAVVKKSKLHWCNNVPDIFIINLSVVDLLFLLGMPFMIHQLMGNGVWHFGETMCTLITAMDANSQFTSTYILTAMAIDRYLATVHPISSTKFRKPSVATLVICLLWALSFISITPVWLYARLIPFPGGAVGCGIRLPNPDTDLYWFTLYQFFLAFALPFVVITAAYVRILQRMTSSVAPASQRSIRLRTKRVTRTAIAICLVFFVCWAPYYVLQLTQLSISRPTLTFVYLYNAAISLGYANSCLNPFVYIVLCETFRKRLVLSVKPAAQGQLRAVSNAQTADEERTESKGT
T4 sequence (Q99705 whole entry): as above
T2 sequence (P97639 whole entry): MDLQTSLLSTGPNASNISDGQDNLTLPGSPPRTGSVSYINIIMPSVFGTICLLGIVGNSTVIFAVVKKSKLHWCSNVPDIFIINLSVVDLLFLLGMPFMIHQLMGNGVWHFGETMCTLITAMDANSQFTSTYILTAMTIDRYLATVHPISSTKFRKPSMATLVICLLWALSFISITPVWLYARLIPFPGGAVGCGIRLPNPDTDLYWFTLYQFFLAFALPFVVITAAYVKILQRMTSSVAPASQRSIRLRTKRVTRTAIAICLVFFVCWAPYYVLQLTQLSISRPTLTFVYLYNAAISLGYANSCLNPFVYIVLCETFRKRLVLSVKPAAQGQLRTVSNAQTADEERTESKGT
T1 sequence (P97639 whole entry): as above

Structure (SMILES)	Ki ([1]; threshold 100 nM or less)	Ki ([1]; threshold 100 μM or less)	IC50 ([2]; threshold 100 nM or less)	IC50 ([2]; threshold 100 μM or less)	Ki ([3]; threshold 100 nM or less)	Ki ([3]; threshold 100 μM or less)	IC50 ([4]; threshold 100 nM or less)	IC50 ([4]; threshold 100 μM or less)
Cc1ccc(Oc2ccc(C(=O)NCCN3CCCC3)cc2NC(=O)Nc2ccccc2)cc1C [Compound 1, 4-[(3,4-dimethylphenyl)oxy]-3-{[(phenylamino)carbonyl]amino}-N-(2-(1-pyrrolidinyl)ethyl)benzamide]	≤ 0.1 µM	≤ 100 µM	≤ 0.1 µM	≤ 100 µM	≤ 0.1 µM	≤ 100 µM	≤ 0.1 µM	≤ 100 µM
Cc1ccc(Oc2ccc(C(=O)NCCN3CCCC3)cc2NC(=O)CCc2ccccc2)cc1C [Compound 5, 4-[(3,4-dimethylphenyl)oxy]-3-[(3-phenylpropanoyl)amino]-N-(2-(1-pyrrolidinyl)ethyl)benzamide]	–	≤ 100 µM	–	–	–	≤ 100 µM	–	≤ 100 µM
Cc1ccc(Oc2ccc(C(=O)NCCN3CCCC3)cc2NC(=O)NCc2ccccc2)cc1C [Compound 6, 4-[(3,4-dimethylphenyl)oxy]-3-({[(phenylmethyl)amino]carbonyl}amino)-N-(2-(1-pyrrolidinyl)ethyl)benzamide]	≤ 0.1 µM	≤ 100 µM	–	–	≤ 0.1 µM	≤ 100 µM	≤ 0.1 µM	≤ 100 µM
Cc1ccc(Oc2ccc(C(=O)NCCN3CCCC3)cc2NC(=O)Nc2ccc(C(C)C)cc2)cc1C [Compound 34, 4-(3,4-dimethylphenoxy)-3-[3-(4-isopropylphenyl)ureido]-N-(2-pyrrolidin-1-yl-ethyl)benzamide]	–	≤ 100 µM	–	≤ 100 µM	≤ 0.1 µM	≤ 100 µM	≤ 0.1 µM	≤ 100 µM
Cc1ccc(Oc2ccc(C(=O)NCCN3CCCC3)cc2NC(=O)Nc2c(C)cccc2C)cc1C [Compound 35, 4-(3,4-dimethylphenoxy)-3-[3-(2,6-dimethylphenyl)ureido]-N-(2-pyrrolidin-1-yl-ethyl)benzamide]	–	≤ 100 µM	–	≤ 100 µM	≤ 0.1 µM	≤ 100 µM	–	≤ 100 µM
Cc1ccc(Oc2ccc(C(=O)NCCN3CCCC3)cc2NC(=O)Nc2cccc3ccccc23)cc1C [Compound 36, 4-(3,4-dimethylphenoxy)-3-(3-naphthalen-1-yl-ureido)-N-(2-pyrrolidin-1-yl-ethyl)benzamide]	–	≤ 100 µM	–	≤ 100 µM	–	≤ 100 µM	≤ 0.1 µM	≤ 100 µM
Cc1ccc(Oc2ccc(C(=O)NCCN3CCCC3)cc2NC(=O)Nc2c(C(C)C)cccc2C(C)C)cc1C [Compound 37, 3-[3-(2,6-diisopropylphenyl)ureido]-4-(3,4-dimethylphenoxy)-N-(2-pyrrolidin-1-yl-ethyl)benzamide]	–	≤ 100 µM	–	≤ 100 µM	–	≤ 100 µM	≤ 0.1 µM	≤ 100 µM
Cc1ccc(Oc2ccc(C(=O)NCCN3CCCC3)cc2NC(=O)Nc2ccc(Br)cc2)cc1C [Compound 38, 3-[3-(4-bromophenyl)ureido]-4-(3,4-dimethylpherioxy)-N-(2-pyrrolidin-1-yl-ethyl)benzamide]	≤ 0.1 µM	≤ 100 µM	≤ 0.1 µM	≤ 100 µM	≤ 0.1 µM	≤ 100 µM	≤ 0.1 µM	≤ 100 µM
COc1cccc(NC(=O)Nc2cc(C(=O)NCCN3CCCC3)ccc2Oc2ccc(C)c(C)c2)c1 [Compound 40, 4-(3,4-dimethylphenoxy)-3-[3-(3-methoxyphenyl)ureido]-N-(2-pyrrolidin-1-yl-ethyl)benzamide]	≤ 0.1 µM	≤ 100 µM	≤ 0.1 µM	≤ 100 µM	≤ 0.1 µM	≤ 100 µM	≤ 0.1 µM	≤ 100 µM
Cc1ccc(Oc2ccc(C(=O)NCCN3CCCC3)cc2NC(=O)Nc2ccccc2Cl)cc1C [Compound 41, 3-[3-(2-chlorophenyl)ureido]-4-(3,4-dimethylphenoxy)-N-(2-pyrrolidin-1-yl-ethyl)benzamide]	≤ 0.1 µM	≤ 100 µM	≤ 0.1 µM	≤ 100 µM	≤ 0.1 µM	≤ 100 µM	≤ 0.1 µM	≤ 100 µM
O=C(Nc1cccc(F)c1)Nc1cc(C(=O)NCCN2CCCC2)ccc1Oc1ccc(F)c(F)c1 [Compound 53, 4-(3,4-difluorophenoxy)-3-[3-(3-fluorophenyl)ureido]-N-(2-pyrrolidin-1-yl-ethyl)benzamide]	–	≤ 100 µM	≤ 0.1 µM	≤ 100 µM	–	≤ 100 µM	–	–
O=C(Nc1cccc(F)c1)Nc1cc(C(=O)NCCN2CCCC2)ccc1Oc1ccc(F)cc1 [Compound 54, 4-(4-fluorophenoxy)-3-[3-(3-fluorophenyl)ureido]-N-(2-pyrrolidin-1-yl-ethyl)benzamide]	–	≤ 100 µM	≤ 0.1 µM	≤ 100 µM	–	≤ 100 µM	–	–
O=C(Nc1cccc(F)c1)Nc1cc(C(=O)NCCN2CCCC2)ccc1Oc1cccc(F)c1 [Compound 55, 4-(3-fluorophenoxy)-3-[3-(3-fluorophenyl)ureido]-N-(2-pyrrolidin-1-yl-ethyl)benzamide]	–	≤ 100 µM	≤ 0.1 µM	≤ 100 µM	–	≤ 100 µM	–	–
Cc1ccc(Oc2ccc(C(=O)NCCN3CCCC3)cc2NC(=O)Nc2cccc(F)c2)cc1 [Compound 56, 3-[3-(3-fluorophenyl)ureido]-N-(2-pyrrolidin-1-yl-ethyl)-4-p-tolyloxybenzamide]	–	≤ 100 µM	≤ 0.1 µM	≤ 100 µM	≤ 0.1 µM	≤ 100 µM	–	–
Cc1cccc(Oc2ccc(C(=O)NCCN3CCCC3)cc2NC(=O)Nc2cccc(F)c2)c1 [Compound 57]	–	≤ 100 µM	≤ 0.1 µM	≤ 100 µM	≤ 0.1 µM	≤ 100 µM	–	–
Cc1ccc(Oc2ccc(C(=O)NCCN3CCCC3)cc2NC(=O)Nc2cc(F)cc(F)c2)cc1C [Compound 58, 3-[3-(3,5-difluorophenyl)ureido]-4-(3,4-dimethylphenoxy)-N-(2-pyrrolidin-1-yl-ethyl)benzamide]	–	≤ 100 µM	≤ 0.1 µM	≤ 100 µM	–	≤ 100 µM	≤ 0.1 µM	≤ 100 µM
